Assays:
[1] = system: gut microbiota; assay: LPS production in gut microbiota (ELISA); type: cell-based; settings: human feces culture; lactic acid bacteria 1×10^6 CFU/mL; anaerobic 24 hr
Description: Fresh human feces were suspended in anaerobic medium (GAM, Nissui Pharmaceutical Co., Ltd., Japan) and allowed to stand for 10 min. The supernatant was diluted with 10,000-fold anaerobic medium, 0.05 mL of the dilution was transplanted into 5 mL of freshly made anaerobic medium, and lactic acid bacteria (1×10^6 CFU/mL) were implanted and incubated anaerobically for 24 hr.

[2] = system: animals with intestinal and brain diseases induced by TNBS; assay: Animals with intestinal and brain diseases induced by TNBS: cognitive improvement, hippocampus; type: in vivo, C57BL/6 male mice; settings: for Cognitive function Exploration (%) / Cognitive function Spont. alteration (%) / Concentration in the hippocampus IFN-γ / Concentration in the hippocampus IL-10 / Concentration in the hippocampus TNF-α: TNBS-treated mice, 1×10^9 CFU/mouse or sulfasalazine 50 mg/kg orally once a day for 5 days; for cognitive impairment caused by TNBS: result in words, summary of Table 18
Description: Indicators of this supernatant were measured using an ELISA kit (Ebioscience). […] The animal's movements were recorded, and reported as arm entries when the animal entered the arm with its hind paw, and the animal's movement was represented by an alternation, which was defined as one alternation when the animal passed through the three arms in succession. The amount of spontaneous alternation behavior was expressed as a percentage between the actual number of alternations and the maximum possible number of alternations (i.e., the total number of […] minus 2). The experiment was conducted in a box (40×40×40 cm) made so that the outside could not be seen from the inside. Two objects (A, A′) of the same shape and size were fixedly disposed in a box and the mouse was relocated to start from the center of the box. Then, the number of times the mouse made contact with the two objects was recorded for 10 minutes. After 24 hours, one of the two objects was replaced with a new object (A, B). Then, one original object and one new object were prepared, and the animal's exploration time was measured. C57BL/6 male mice (5 weeks old, 19-21 g) were divided (6 mice in each group) and acclimatized to the laboratory for 1 week. […] Meanwhile, the normal group was orally administered with 0.1 ml of physiological saline. From the next day, the mice were orally administered once a day for 5 days with lactic acid bacteria as a test sample suspended in physiological saline solution at a concentration of 1×10^9 CFU per mouse (NK210 alone (LR): 1×10^9 CFU/mouse, NK219 alone (BL): 1×10^9 CFU/mouse, NK209 alone (LL): 1×10^9 CFU/mouse, combined (MX, 210+219): NK210, 8×10^8 CFU/mouse and NK219, 2×10^8 CFU/mouse, combined (MX, 209+219) NK209, 8×10^8 CFU/mouse and NK219, 2×10^8 CFU/mouse, LR+BL+LL: NK210, 4×10^8 CFU/mouse, NK219, 2×10^8 CFU/mouse, and NK209, 4×10^8 CFU/mouse, heat treated (H—), respectively: 1×10^9 CFU/mouse). […] The day following the conclusion of sample administration, the experimental animals were sacrificed, and samples from the brain hippocampus, colon, and spleen were collected. In the Hippocampus, inflammatory indicators, such as TNF-α and IL-10, were measured using ELISA. In the colon, intestinal length and inflammatory indicators, such as TNF-α and IL-10, were measured. In the spleen, Th1 cells and Treg cells were measured by FACS (Fluorescence-Activated Cell Sorting).

[3] = Antioxidant activity (DPPH, in vitro); type: biochemical; settings: DPPH 0.2 mM; lactic acid bacteria suspension 1×10^8 CFU/ml; 37° C. 20 min
Summary of the method: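 Lactic acid bacteria suspension (1×10^8 CFU/ml) or vitamin C (1 g/ml) was mixed with 0.2 mM ethanolic DPPH and incubated 20 min at 37° C. After centrifugation, supernatant absorbance at 517 nm gave the antioxidant activity.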

[4] = system: Neuropeptide Y (NPY); assay: Neuropeptide Y (NPY) expression in PC12 phaeochromocytoma cells; type: cell-based; settings: LPS 200 ng/ml; lactic acid bacteria 1×10^4 CFU/ml; 24 hr
Description: PC12 cells obtained from the Korean Cell Line Bank were cultured in DMEM medium supplemented with 10% FBS and 1% antibiotics, and dispensed at 1×10^6 cells per well in a 12-well plate. Then, LPS (200 ng/ml) was added to each well along with lactic acid bacteria (1×10^4 CFU/ml) and incubated for 24 hr. The cells and supernatants were collected, sonicated and centrifuged, and the amount of NPY in the supernatant was measured by ELISA kit.

[5] = system: IL-10; assay: IL-10 expression in LPS-treated macrophages (ELISA); type: cell-based, C57BL/6 mice; settings: macrophages treated with lactic acid bacteria and LPS for 24 hours
Summary of the method: (§1)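 Peritoneal macrophages were elicited in male C57BL/6 mice (6 weeks) by i.p. 4% thioglycolate and harvested 96 h later. Cells at 0.5×10^6/well were treated with lactic acid bacteria plus LPS for 24 h. Cytokines in the supernatant were quantified by ELISA.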

[6] = system: TNF-α; assay: TNF-α expression in LPS-treated macrophages (ELISA); type: cell-based, C57BL/6 mice; settings: macrophages treated with lactic acid bacteria and LPS for 24 hours
Summary of the method: as §1

[7] = system: Clostridium difficile; assay: Clostridium difficile proliferation in gut microbiota (PCR); type: cell-based; settings: for Gut microbiota Inhibition of difficile bacteria proliferation: human feces culture, lactic acid bacteria 1×10^6 CFU/mL, anaerobic 24 hr
Summary of the method: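 Human fecal supernatant, diluted 10,000-fold in GAM, co-cultured anaerobically 24 h with lactic acid bacteria (1×10^6 CFU/mL). C. difficile quantified by PCR on pellet DNA (95 °C 30 s; 42 cycles 95 °C 5 s/72 °C 30 s); supernatant LPS measured by ELISA.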

| Substance | Gut microbiota Inhibition of LPS production [1] | Cognitive function Exploration (%) [2] [%] | Cognitive function Spont. alteration (%) [2] [%] | Concentration in the hippocampus IFN-γ [2] [pg/mg] | Concentration in the hippocampus IL-10 [2] [pg/mg] | Concentration in the hippocampus TNF-α [2] [pg/mg] | cognitive impairment caused by TNBS [2] | Antioxidant activity [3] | PC12 cell Induction of NPY expression [4] | Macrophage Induction of IL-10 expression [5] | Macrophage Inhibition of TNF-α expression [6] | Gut microbiota Inhibition of difficile bacteria proliferation [7] | inhibiting the proliferation of intestinal Clostridium difficile ([7]; result in words, summary of Table 2) |
| --- | --- | --- | --- | --- | --- | --- | --- | --- | --- | --- | --- | --- | --- |
| Lactobacillus rhamnosus NK210 | +++ (very strongly (+++; >90%)) | 74.25 | 62.45 | 26.28 | 38.64 | 12.14 | improved | +++ (very strongly (+++; >90%)) | +++ (very strongly (+++; >90%)) | +++ (very strongly (+++; >90%)) | ++ (strongly (++; >60-90%)) | +++ (very strongly (+++; >90%)) | – |
| Lactococcus lactis NK209 | + (weakly (+; >20-60%)) | 70.20 | 58.8 | 30.81 | 35.53 | 13.54 | – | + (weakly (+; >20-60%)) | + (weakly (+; >20-60%)) | + (weakly (+; >20-60%)) | + (weakly (+; >20-60%)) | +++ (very strongly (+++; >90%)) | significant effect |
| Bifidobacterium longum NK219 | +++ (very strongly (+++; >90%)) | 75.37 | 65.32 | 25.02 | 40.26 | 11.93 | improved | +++ (very strongly (+++; >90%)) | ++ (strongly (++; >60-90%)) | +++ (very strongly (+++; >90%)) | +++ (very strongly (+++; >90%)) | +++ (very strongly (+++; >90%)) | – |

— patent US20250009819A1, “NOVEL PROBIOTICS AND USE THEREOF” (PBLBIOLAB CO., LTD., priority 2021, published 2025)
